A word on the IC50: it is the concentration needed to halve the response being measured.

This note sets out measurements from patent US9090605B2, “Substituted 5-,6- and 7-membered heterocycles, medicaments containing such compounds, and their use” (Vitae Pharmaceuticals, Inc., priority 2010, dated 2015).

11β-HSD1, sequence (P28845 whole entry): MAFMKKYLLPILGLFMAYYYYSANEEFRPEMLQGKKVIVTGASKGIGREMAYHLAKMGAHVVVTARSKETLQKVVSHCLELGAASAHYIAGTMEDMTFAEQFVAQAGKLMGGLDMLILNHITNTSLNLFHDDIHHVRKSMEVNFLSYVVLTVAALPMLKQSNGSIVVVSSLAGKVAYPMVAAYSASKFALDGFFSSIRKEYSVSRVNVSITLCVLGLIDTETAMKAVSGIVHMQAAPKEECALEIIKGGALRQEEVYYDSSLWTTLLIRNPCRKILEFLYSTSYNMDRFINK

This assay addresses 11β-HSD1 (Homo sapiens, UniProt P28845). Put plainly: In vitro inhibition of 11β-HSD1, HTRF detection of cortisol generated by human liver microsomes (biological test example 1). It counts as biochemical. Also noted: detecting cortisol generated from cortisterone by human liver microsomes; from tissue; host or cells: human liver microsomes. Conditions: 1 hour at 37° C., cortisone 80 nM, NADPH 200 μM, read-out: IC50, inhibitory activity on 11β-HSD 1. As to the method: Briefly, compounds were incubated for 1 hour at 37° C. in Tris buffer (20 mM tris, 5 mM EDTA, pH 6.0) containing NADPH (200 μM) and cortisone (80 nM). Cortisol generated in the reaction was then detected with a competitive immunoassay, involving two HTRF conjugates: cortisol linked to XL665 and anti-cortisol antibody labeled with Europium cryptate. The incubation period for detection reaction was typically 2 hours. The amount of cortisol was determined by reading the time-resolved fluorescence of the wells (Ex 320/75 nm; Em 615/8.5 nm and 665/7.5 nm). The ratio of the two emission signals was then calculated (Em665*10000/Em615). […] Each assay also contained a calibration curve with cortisol to transform the fluorescent data into cortisol concentrations. Percent inhibition (% CTL) of each compound was determined relative to the carbenoxolone signal and IC50 curves were generated.
On the technique in general: TR-FRET usually uses a lanthanide donor and a delayed reading to cut background.
Turning to `CCOC(=O)C1(c2ccc(-c3ccc([C@H](C)N4CC[C@](CC(C)(C)O)(c5ccccc5)OC4=O)cc3)nn2)CC1` [Example 7, 1-[6-(4-{(S)-1-[(S)-6-(2-Hydroxy-2-methyl-propyl)-2-oxo-6-phenyl-[1,3]oxazinan-3-yl]-ethyl}-phenyl)-pyridazin-3-yl]-cyclopropanecarboxylic acid ethyl ester], the IC50 amounted to 41 nM. As to `C[C@@H](c1ccc(-c2ccc(C3(S(C)(=O)=O)CC3)nc2)cc1)N1CC[C@](CC(C)(C)O)(c2ccccc2)OC1=O` [Example 18, (S)-6-(2-Hydroxy-2-methyl-propyl)-3-((S)-1-{4-[6-(1-methanesulfonyl-cyclopropyl)-pyridin-3-yl]-phenyl}-ethyl)-6-phenyl-[1,3]oxazinan-2-one], the half-inhibitory concentration (IC50) is 64 nM.

For `CNC(=O)C1(c2cccc(-c3ccc([C@H](C)N4CC[C@](CC(C)(C)O)(c5ccccc5)OC4=O)cc3)n2)CC1` [Example 23, 1-[6-(4-{(S)-1-[(S)-6-(2-Hydroxy-2-methyl-propyl)-2-oxo-6-phenyl-[1,3]oxazinan-3-yl]-ethyl}-phenyl)-pyridin-2-yl]-cyclopropanecarboxylic acid methylamide], the IC50 was found to be 115 nM. As for `C[C@@H](c1ccc(-c2ccnc(C3(C(N)=O)CC3)c2)cc1)N1CC[C@](CC(C)(C)O)(c2ccccc2)OC1=O` [Example 46, 1-[4-(4-{(S)-1-[(S)-6-(2-Hydroxy-2-methyl-propyl)-2-oxo-6-phenyl-[1,3]oxazinan-3-yl]-ethyl}-phenyl)-pyridin-2-yl]-cyclopropanecarboxylic acid amide], the figure is 56 nM; as for `C[C@@H](c1ccc(-c2ccc(C3(C#N)CC3)cn2)cc1)N1CC[C@](CC(C)(C)O)(c2ccccc2)OC1=O` [Example 17, 1-[6-(4-{(S)-1-[(S)-6-(2-Hydroxy-2-methyl-propyl)-2-oxo-6-phenyl-[1,3]oxazinan-3-yl]-ethyl}-phenyl)-pyridin-3-yl]-cyclopropanecarbonitrile], 81 nM. For `C[C@@H](c1ccc(-c2ccnc(C3(C(=O)O)CC3)c2)cc1)N1CC[C@](CC(C)(C)O)(c2ccccc2)OC1=O` [Example 45, 1-[4-(4-{(S)-1-[(S)-6-(2-Hydroxy-2-methyl-propyl)-2-oxo-6-phenyl-[1,3]oxazinan-3-yl]-ethyl}-phenyl)-pyridin-2-yl]-cyclopropanecarboxylic acid], the IC50 came out at 186 nM.

`C[C@@H](c1ccc(-c2ccc(C3(C(N)=O)CC3)cn2)cc1)N1CC[C@](CC(C)(C)O)(c2ccccc2)OC1=O` [Example 19, 1-[6-(4-{(S)-1-[(S)-6-(2-Hydroxy-2-methyl-propyl)-2-oxo-6-phenyl-[1,3]oxazinan-3-yl]-ethyl}-phenyl)-pyridin-3-yl]-cyclopropanecarboxylic acid amide]: the IC50 turned out to be 35 nM. For `CNC(=O)C1(c2ccc(-c3ccc([C@H](C)N4CC[C@](CC(C)(C)O)(c5ccccc5)OC4=O)cc3)cn2)CC1` [Example 5, 1-[5-(4-{(S)-1-[(S)-6-(2-Hydroxy-2-methyl-propyl)-2-oxo-6-phenyl-[1,3]oxazinan-3-yl]-ethyl}-phenyl)-pyridin-2-yl]-cyclopropanecarboxylic acid methylamide], the IC50 was determined as 31 nM.

Consider `C[C@@H](c1ccc(-c2ccc(C3(O)CCN(C)C3=O)nc2)cc1)N1CC[C@](CC(C)(C)O)(c2ccccc2)OC1=O` (stereo partly drawn) [Example 56, 3-((S)-1-{4-[6-(3-Hydroxy-1-methyl-2-oxo-pyrrolidin-3-yl)-pyridin-3-yl]-phenyl}-ethyl)-(S)-6-(2-hydroxy-2-methyl-propyl)-6-phenyl-[1,3]oxazinan-2-one], for which the IC50 was 59 nM. As for `C[C@@H](c1ccc(-c2ccc(N3CCC[C@H]3C(N)=O)nc2)cc1)N1CC[C@](CC(C)(C)O)(c2ccccc2)OC1=O` [Example 54, (S)-1-[5-(4-{(S)-1-[(S)-6-(2-Hydroxy-2-methyl-propyl)-2-oxo-6-phenyl-[1,3]oxazinan-3-yl]-ethyl}-phenyl)-pyridin-2-yl]-pyrrolidine-2-carboxylic acid amide], the figure is 30 nM.
